Laboratory results reported in patent US10294202B2, “Pyrrolidinones as herbicides” (FMC Corporation, priority 2013, dated 2019).
Like-named read-outs stand apart in the source and are kept apart here.

Experiments:
crabgrass, large = test: Test A pre-/postemergence herbicide test; format: in vivo, Digitaria sanguinalis; conditions: for Crabgrass, Large plant response rating: Preemergence, visual rating on 0 to 100 scale (0 no effect, 100 complete control)
In short: (§1)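 Both application timings used compounds in a non-phytotoxic solvent plus surfactant. Pre-emergence: soil sprayed directly after seeding into loam/sand. Post-emergence: foliage of 2–10 cm seedlings (1–2 leaves) sprayed. Injury rated ~10 days later, 0–100.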

morningglory = test: Test A pre-/postemergence herbicide test; format: in vivo, Ipomoea spp.; conditions: for Morningglory plant response rating: Preemergence, visual rating on 0 to 100 scale (0 no effect, 100 complete control)
In short: as §1

rice = test: Test C flooded paddy test; format: in vivo, Oryza sativa; conditions: Flood
In short: (§2)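 Plants at the 2-leaf stage in pots flooded to 3 cm were treated by applying compound directly to the paddy water, with depth held throughout. After 13 to 15 days in a greenhouse, response was rated visually against controls on a 0 (no effect) to 100 (complete control) scale.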

barnyardgrass = test: Test C flooded paddy test; format: in vivo, Echinochloa crus-galli; conditions: Flood
In short: as §2

velvetleaf = test: Test A pre-/postemergence herbicide test; format: in vivo, Abutilon theophrasti; conditions: for Velvetleaf plant response rating: Preemergence, visual rating on 0 to 100 scale (0 no effect, 100 complete control)
In short: as §1

ducksalad = test: Test C flooded paddy test; format: in vivo, Heteranthera limosa; conditions: Flood
In short: as §2

sedge, umbrella = test: Test C flooded paddy test; format: in vivo, Cyperus difformis; conditions: Flood
In short: as §2

[1] = Postemergence, 125 g ai/ha, 0 to 100 scale, 0 no effect, 100 complete control
[2] = Postemergence, 500 g ai/ha, 0 to 100 scale (0 no effect, 100 complete control)
[3] = preemergence, 500 g ai/ha, 0 to 100 scale
[4] = 62 g ai/ha, scale of 0 to 100 where 0 is no effect and 100 is complete control, 13 to 15 days
[5] = 31 g ai/ha, scale of 0 to 100 where 0 is no effect and 100 is complete control, 13 to 15 days
[6] = 125 g ai/ha, scale of 0 to 100 where 0 is no effect and 100 is complete control, 13 to 15 days

O=C1NCC(c2ccc(F)c(C(F)(F)F)c2)C1C(=O)Nc1cccc(F)c1F (racemic) [Compound 77]
100: Plant response rating, Ducksalad (ducksalad; 500 g ai/ha, scale 0 to 100) | Plant response rating, Ducksalad (ducksalad; 1000 g ai/ha, scale 0 to 100) | Plant response rating, Ducksalad (ducksalad; 2000 g ai/ha, scale 0 to 100)
70: Plant response rating, Barnyardgrass (barnyardgrass; 2000 g ai/ha, scale 0 to 100)
0: Plant response rating, Morningglory (morningglory; [1]) | Plant response rating, Rice (rice; 250 g ai/ha, scale 0 to 100) | Plant response rating, Rice (rice; 500 g ai/ha, scale 0 to 100) | Velvetleaf plant response rating (velvetleaf; 125 g ai/ha) | Plant response rating, Velvetleaf (velvetleaf; [3]) | Plant response rating, Sedge, Umbrella (sedge, umbrella; 250 g ai/ha, scale 0 to 100) | Plant response rating, Sedge, Umbrella (sedge, umbrella; 500 g ai/ha, scale 0 to 100)
95: Plant response rating, Ducksalad (ducksalad; 250 g ai/ha, scale 0 to 100)
90: Crabgrass, Large plant response rating (crabgrass, large; 125 g ai/ha) | Plant response rating, Crabgrass, Large (crabgrass, large; [3])
40: Plant response rating, Barnyardgrass (barnyardgrass; 1000 g ai/ha, scale 0 to 100) | Plant response rating, Velvetleaf (velvetleaf; [2]) | Plant response rating, Sedge, Umbrella (sedge, umbrella; 2000 g ai/ha, scale 0 to 100)
20: Morningglory plant response rating (morningglory; 125 g ai/ha) | Plant response rating, Rice (rice; 1000 g ai/ha, scale 0 to 100) | Plant response rating, Barnyardgrass (barnyardgrass; 250 g ai/ha, scale 0 to 100) | Plant response rating, Velvetleaf (velvetleaf; [1]) | Plant response rating, Sedge, Umbrella (sedge, umbrella; 1000 g ai/ha, scale 0 to 100)
60: Plant response rating, Morningglory (morningglory; [3]) | Plant response rating, Rice (rice; 2000 g ai/ha, scale 0 to 100)
30: Plant response rating, Morningglory (morningglory; [2]) | Plant response rating, Barnyardgrass (barnyardgrass; 500 g ai/ha, scale 0 to 100)
80: Plant response rating, Crabgrass, Large (crabgrass, large; [1]) | Plant response rating, Crabgrass, Large (crabgrass, large; [2])

O=C1NCC(c2ccc(Cl)c(Cl)c2)C1C(=O)Nc1ccccc1F (racemic) [Compound 14]
90: Plant response rating, Crabgrass, Large (crabgrass, large; [2]) | Crabgrass, Large plant response rating (crabgrass, large; 125 g ai/ha) | Plant response rating, Crabgrass, Large (crabgrass, large; [3]) | Plant response rating, Velvetleaf (velvetleaf; [2])
40: Plant response rating, Ducksalad (ducksalad; [4])
0: Plant response rating, Morningglory (morningglory; [1]) | Plant response rating, Morningglory (morningglory; [2]) | Morningglory plant response rating (morningglory; 125 g ai/ha) | Plant response rating, Morningglory (morningglory; [3]) | Plant response rating, Rice (rice; [4]) | Plant response rating, Rice (rice; 250 g ai/ha, scale 0 to 100) | Plant response rating, Barnyardgrass (barnyardgrass; [4]) | Plant response rating, Barnyardgrass (barnyardgrass; 250 g ai/ha, scale 0 to 100) | Plant response rating, Velvetleaf (velvetleaf; [1]) | Velvetleaf plant response rating (velvetleaf; 125 g ai/ha) | Plant response rating, Velvetleaf (velvetleaf; [3]) | Plant response rating, Sedge, Umbrella (sedge, umbrella; [4])
80: Plant response rating, Crabgrass, Large (crabgrass, large; [1])
20: Plant response rating, Sedge, Umbrella (sedge, umbrella; 250 g ai/ha, scale 0 to 100)
85: Plant response rating, Ducksalad (ducksalad; 250 g ai/ha, scale 0 to 100)

O=C1NCC(Br)(c2ccccc2)C1C(=O)Nc1ccccc1F (stereo not shown) [Compound 92, 4-bromo-N-(2-fluorophenyl)-2-oxo-4-phenyl-3-pyrrolidinecarboxamide]
20: Plant response rating, Rice (rice; [6]) | Plant response rating, Rice (rice; 250 g ai/ha, scale 0 to 100) | Plant response rating, Ducksalad (ducksalad; [4]) | Plant response rating, Ducksalad (ducksalad; [6])
10: Plant response rating, Rice (rice; [5]) | Plant response rating, Rice (rice; [4]) | Plant response rating, Barnyardgrass (barnyardgrass; [5]) | Plant response rating, Barnyardgrass (barnyardgrass; [4]) | Plant response rating, Barnyardgrass (barnyardgrass; [6]) | Plant response rating, Barnyardgrass (barnyardgrass; 250 g ai/ha, scale 0 to 100)
70%: pest or weed control at 500 g/ha (crabgrass, large; Digitaria sanguinalis, post-emergence, 240 h, Postemergence, 500 g ai/ha, 0 to 100 scale (0 no effect, 100 complete control), read-out: Plant response rating, Crabgrass, Large)
80: Crabgrass, Large plant response rating (crabgrass, large; 125 g ai/ha)
0%: pest or weed control at 125 g/ha (morningglory; Ipomoea, post-emergence, 240 h, Postemergence, 125 g ai/ha, 0 to 100 scale, 0 no effect, 100 complete control, read-out: Plant response rating, Morningglory) | pest or weed control at 500 g/ha (morningglory; Ipomoea, post-emergence, 240 h, Postemergence, 500 g ai/ha, 0 to 100 scale (0 no effect, 100 complete control), read-out: Plant response rating, Morningglory) | pest or weed control at 500 g/ha (morningglory; Ipomoea, pre-emergence, 240 h, preemergence, 500 g ai/ha, 0 to 100 scale, read-out: Plant response rating, Morningglory) | pest or weed control at 125 g/ha (velvetleaf; Abutilon theophrasti, post-emergence, 240 h, Postemergence, 125 g ai/ha, 0 to 100 scale, 0 no effect, 100 complete control, read-out: Plant response rating, Velvetleaf) | pest or weed control at 500 g/ha (velvetleaf; Abutilon theophrasti, post-emergence, 240 h, Postemergence, 500 g ai/ha, 0 to 100 scale (0 no effect, 100 complete control), read-out: Plant response rating, Velvetleaf) | pest or weed control at 500 g/ha (velvetleaf; Abutilon theophrasti, pre-emergence, 240 h, preemergence, 500 g ai/ha, 0 to 100 scale, read-out: Plant response rating, Velvetleaf)
20%: pest or weed control at 125 g/ha (crabgrass, large; Digitaria sanguinalis, post-emergence, 240 h, Postemergence, 125 g ai/ha, 0 to 100 scale, 0 no effect, 100 complete control, read-out: Plant response rating, Crabgrass, Large)
90%: pest or weed control at 500 g/ha (crabgrass, large; Digitaria sanguinalis, pre-emergence, 240 h, preemergence, 500 g ai/ha, 0 to 100 scale, read-out: Plant response rating, Crabgrass, Large)
0: Morningglory plant response rating (morningglory; 125 g ai/ha) | Velvetleaf plant response rating (velvetleaf; 125 g ai/ha) | Plant response rating, Ducksalad (ducksalad; [5]) | Plant response rating, Sedge, Umbrella (sedge, umbrella; [5]) | Plant response rating, Sedge, Umbrella (sedge, umbrella; [4]) | Plant response rating, Sedge, Umbrella (sedge, umbrella; [6]) | Plant response rating, Sedge, Umbrella (sedge, umbrella; 250 g ai/ha, scale 0 to 100)
70: Plant response rating, Ducksalad (ducksalad; 250 g ai/ha, scale 0 to 100)
